Measured values published in ChEMBL document CHEMBL2311490 (Bioorg Med Chem Lett, 2013).

How the values were obtained:
Xenopus laevis [1] = species: Xenopus laevis; assay: Antimelanogenic activity in Xenopus laevis tadpoles assessed as melanophore aggregation by microscopy relative to melatonin; assay type: functional
Xenopus laevis [2] = species: Xenopus laevis; assay: Antimelanogenic activity in Xenopus laevis tadpoles assessed as melanophore aggregation by microscopy; assay type: functional, organism-based
[3] = target: Melatonin receptor type 1A (Homo sapiens, UniProt P48039); assay: Displacement of [125I]2-iodomelatonin from human recombinant MT1 receptor expressed in HEK293 cells after 2 hrs by gamma counting; assay type: cell-based
[4] = target: T1, Melatonin receptor type 1B (Homo sapiens, UniProt P49286); assay: Displacement of [125I]2-iodomelatonin from human recombinant MT2 receptor expressed in HEK293 cells after 2 hrs by gamma counting; assay type: cell-based
T1 sequence (P49286 whole entry): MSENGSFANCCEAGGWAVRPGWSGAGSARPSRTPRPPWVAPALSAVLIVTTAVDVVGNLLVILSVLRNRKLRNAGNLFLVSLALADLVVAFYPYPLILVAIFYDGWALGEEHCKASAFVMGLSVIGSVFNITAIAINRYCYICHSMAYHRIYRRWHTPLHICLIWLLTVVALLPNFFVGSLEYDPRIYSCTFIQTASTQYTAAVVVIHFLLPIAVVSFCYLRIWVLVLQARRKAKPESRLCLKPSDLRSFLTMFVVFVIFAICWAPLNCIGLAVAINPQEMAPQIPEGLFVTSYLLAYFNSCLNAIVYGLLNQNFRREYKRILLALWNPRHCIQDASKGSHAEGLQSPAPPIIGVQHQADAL

[5] = Displacement of [125I]2-iodomelatonin from melatonin receptor in chicken brain membranes after 60 mins by gamma counting; assay type: cell membranes, Gallus gallus, Membrane
Xenopus laevis [6] = species: Xenopus laevis; assay: Ratio of melatonin EC50 to compound EC50 for antimelanogenic activity in Xenopus laevis tadpoles assessed as melanophore aggregation by microscopy; assay type: functional

Chain of Melatonin receptor type 1A (P48039 whole entry): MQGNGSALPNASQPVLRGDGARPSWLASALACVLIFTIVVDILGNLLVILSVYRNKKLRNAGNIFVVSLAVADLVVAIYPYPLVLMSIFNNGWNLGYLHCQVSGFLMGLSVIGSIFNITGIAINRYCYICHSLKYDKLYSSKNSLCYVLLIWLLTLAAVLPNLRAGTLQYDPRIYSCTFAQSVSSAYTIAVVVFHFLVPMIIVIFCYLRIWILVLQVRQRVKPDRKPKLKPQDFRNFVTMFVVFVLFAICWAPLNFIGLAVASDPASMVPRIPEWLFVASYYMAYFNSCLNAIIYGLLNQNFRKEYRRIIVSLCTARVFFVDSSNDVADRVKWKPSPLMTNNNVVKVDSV

SMILES	EC50 (Xenopus laevis [2]) [nM]	Ki [3] [nM]	Ki [4] [nM]	Ki [5] [nM]	fold change (FC) (Xenopus laevis [1])	Ratio EC50 (Xenopus laevis [6])
CC(=O)N/C=C/c1cccc2ccccc12	854	6.7	1.4		0.0031	
CNC(=O)N/C=C/c1ccccc1OC		> 1000	> 1000			
CNC(=O)N/C=C/c1cccc2ccccc12		25	15	139		
CNC(=O)N/C=C/c1c(OC)ccc2ccccc12		3.1	6.5	36.6		
CNC(=O)N/C=C/c1c(OC)ccc2ccc(OC)cc12		0.2	0.3	0.08		
COc1ccc(OC)c([C@@H]2C[C@@H]2NC(C)=O)c1 (racemic)				> 1000		
CC(=O)N[C@@H]1C[C@H]1c1cccc2ccccc12 (racemic)	> 10000	19	6.8	128		
COc1ccc2cccc([C@@H]3C[C@H]3NC(C)=O)c2c1 (racemic)	155	0.3	0.7	1.6	0.017	
COc1ccc2ccccc2c1[C@@H]1C[C@H]1NC(C)=O (racemic)	101	3.7	2.6	15	0.025	
COc1ccc2ccc(OC)c([C@@H]3C[C@H]3NC(C)=O)c2c1 (racemic)	0.01	0.06	0.2	0.46	264	
COc1ccccc1[C@@H]1C[C@H]1NC(C)=O (racemic)				> 1000		
COc1ccc(OC)c([C@@H]2C[C@H]2NC(C)=O)c1 (racemic)		87	86	130		
COc1ccc2cccc(CCNC(C)=O)c2c1 [AGOMELATINE]	0.35			0.67		
COc1ccc2[nH]cc(CCNC(C)=O)c2c1 [MELATONIN]				0.54		

More lines, main results first:

EC50 (Xenopus laevis [2]) [nM]	Ki [3] [nM]	Ki [4] [nM]	Ki [5] [nM]	SMILES	fold change (FC) (Xenopus laevis [1])	Ratio EC50 (Xenopus laevis [6])
			803	COc1cccc(/C=C/NC(C)=O)c1		
			283	COc1ccc(OC)c(/C=C/NC(C)=O)c1		
			> 1000	CNC(=O)N/C=C/c1cc(OC)ccc1OC		
0.035	0.04	0.03	0.16	COc1ccc2cccc(/C=C/NC(C)=O)c2c1	6.1	
			0.44	CNC(=O)N/C=C/c1cccc2ccc(OC)cc12		
93.5	0.1	0.09	4.6	COc1ccc2ccccc2c1/C=C/NC(C)=O	0.028	
0.00076	0.03	0.07	0.012	COc1ccc2ccc(OC)c(/C=C/NC(C)=O)c2c1	3473	1000
			> 1000	COc1ccccc1/C=C/NC(C)=O		
			93	COc1cccc([C@@H]2C[C@H]2NC(C)=O)c1 (racemic)		
